Results on 9 molecules are retold here after US3941842A, “P,P'-Disubstituted α-trichloromethylbenzylanilines” (priority 1972, dated 1976).

The test system of one data set is insects. The following applies: background; cited from earlier work.
For data set [1] the following is noted: cited from earlier work.
Data set [2] is described as follows: Model ecosystem: distribution, ecological magnification and Biodegradability Index. An excerpt: After the amounts of the various metabolites have been calculated and a determination is made as to which of the metabolites are to be designated as "polar" and which are to be designated as "non-polar", a Biodegradability Index (amount of polar metabolites/amount of nonpolar metabolites) may be calculated. Remembering that nonpolar compounds, such as DDT are readily soluble in the fatty tissues, but are not readily soluble in water based solutions, and that the cell fluid is essentially a water based solution, the lower the Biodegradability Index, the lower the amount of biodegradability of the compound. The higher the amount of polarity, the greater the likelihood that the polar compound will dissolve in water, a very polar compound, and be eliminated from the cell.
The environmental fate of any new pesticide is a factor of paramount importance in determining how and where it might be used. The behavior of ^3 H-α-trichloromethyl-p-ethoxybenzyl-p-ethoxyaniline has been studied by the model ecosystem technique following application of 5.0 mg. of labeled compound to Sorghum plants. A summary of
metabolites from the organisms in the model ecosystem after 33 days were
identified by cochromatography with standards of known constitution, by
appropriate chromogenic reagents, and by high-resolution mass
spectrometry. The data of Table IV indicate the O-dealkylation of
Food Chem. 1 (1972). Ethoxychlor was found in the snail to 58.6 ppm and in the fish to 0.92 ppm, along with its ethylene and the mono- and bis-phenols formed by O-dealkylation. The ecological magnification (E.M.) of ethoxychlor, defined as the ratio of the parent material in the fish to the concentration in the water, was 1500-fold as compared with an E.M. of only 0.7-fold for the ethoxyaniline.
Comparing the Biodegradability Indices (B.I.=total recovered polar metabolites/total recovered nonpolar metabolites) the values are 0.44 for ethoxychlor and 2.0 for ethoxyaniline.

The test system of the next data set is Female housefly. The data set can be described thus: Metabolism of 3H-ethoxyaniline by female RSP housefly. The following applies: 24 hr after topical 1.0 μg 3H-ethoxyaniline (compound III). The procedure:
(§1) The compounds of the present invention were tested for insecticidal activity by standard methods, and compared with the insecticidal activities of DDT and symmetrical analogs of DDT, such methoxychlor. Toxicological methods for the determination of the topical LD50 values to adult female SNAIDM and RSP houseflies, Musca domestica L. and to Phormia regina, and LC50 values to Culex pipiens quinquefasciatus Say, and Anopheles albimanus Weid mosquitoes were described by Metcalf el al., 44 Bull. World Health Org. 363 (1971). The methods for evaluation of metabolism by mouse liver homogenate and by female RSP housefly and salt-marsh caterpillar larvae Estigmene acrea Drury, were described by Kapoor et al., 18 J. Agr. Food Chem. 1145 (1970). The techniques for model eocsystem evluation were described by Metcalf et al., 5 J. Environ. Sci. Tech. 709 (1971).
(§2) The biodegradability of an insecticide may be measured by administering measured doses of a tritium labeled test insecticide to a subject. Some time later the subject is sacrificed, liquefied, and a sample of the liquefied insect is placed on a thin layer chromotagraphy (tlc) plate. The plate is developed in a suitable solvent and Rf values of the various compounds contained in the sample are measured against known Rf values of previously synthesized theoretical metabolic breakdown products. The amount of each metabolite present may thus be measured by measuring the ^3 H at each separately resolved spot on the tlc plate. A permanent record may be made by exposing film to the plate to form a ratioautograph.

The next data set deals with Salt-marsh caterpillar. Briefly: Metabolism of 3H-ethoxyaniline by salt-marsh caterpillar larvae. To be noted: 24 hr after feeding 0.5 mg 3H-ethoxyaniline (compound III). The procedure: as §1, §2
Data set [3] concerns multifunction oxidase (MFO) enzymes. To be noted: background; cited from earlier work.
A short description of data set [4]: Metabolism of 3H-labeled compound by mouse liver homogenate. The following applies: 0.01 μM 3H-labeled compound III, 1 hr incubation, NADPH and nicotinamide. The procedure: as §1, §2
For a further data set, the system named is Musca domestica Rsp. The data set can be described thus: Topical LD50 to adult female RSP houseflies.
The subject of data set [5] is Musca domestica (SNAIDM and RSP strains), Phormia regina, Culex fatigans and Anopheles albimanus. Briefly: Insecticidal activity over the test insects (Table II, summarised in words). To be noted: synergism by piperonyl butoxide. Type of data set: in vivo. The procedure:
as §1
Since piperonyl butoxide serves to block the action of MFO, the synergized LD50 values express the intrinsic toxicity of the compounds. With the detoxifying action of MFO enzymes blocked, the intrinsic toxicity of the compounds can thus be measured.

A further data set has as its system Culex fatigans larvae. Briefly: LC50 to Culex fatigans larvae. Type of data set: in vivo, Culex pipiens quinquefasciatus Say. The source says: (§3) World Health Org. 363 (1971). […] Food Chem. 1145 (1970). […] Sci. Tech. 709 (1971). The results are detailed in Table II. ##SPC1##
Data set [6] deals with Anopheles albimanus larvae. Briefly: LC50 to Anopheles albimanus larvae. Format: in vivo, Anopheles albimanus Weid.
From the text: as §3

For a further data set, the system named is Musca domestica Snaidm. The data set can be described thus: Topical LD50 to adult female SNAIDM houseflies.
For another data set, the system named is Phormia regina. The data set can be described thus: whole plant or invertebrate.
The mark [7] stands for this setting: model ecosystem, Kapoor et al., 20(1) J. Agr. Food Chem. 1 (1972).
Setting [8] is: 33 days, 5.0 mg 3H-ethoxyaniline to Sorghum.
[9] abbreviates: synergistic ratio: LD50 alone/LD50 synergized with piperonyl butoxide.

Entries after “also recorded” stand apart in the source; their conditions may differ.

`Cc1ccc(C(c2ccc(C)cc2)C(Cl)(Cl)Cl)cc1` [methylchlor, 1,1,1-trichloro-2,2-bis(p-methylphenyl)ethane]: the “insecticidal activity (in words)” value in the data set on insects is “considerably less insecticidal activity than DDT towards other species of insects”.

On to `CCOc1ccc(C(c2ccc(OCC)cc2)C(Cl)(Cl)Cl)cc1` [Ethoxychlor, 2,2-bis(p-ethoxyphenyl)-1,1,1-trichloroethane], for which, in data set [1] (setting [7]), the “concentration found in the fish” value is listed as 0.92 ppm and the “concentration found in the snail” value is listed as 58.6 ppm. Further, the “ecological magnification (E.M.)” value in data set [1] (ratio of parent material in fish to concentration in water, Kapoor et al.) is listed as 1500 fold. For the same molecule, the “Biodegradability Index (B.I.)” value in data set [1] (total recovered polar/total recovered nonpolar metabolites, ethoxychlor evaluated by Kapoor et al.) is on record as 0.44. Also, the “biodegradability (in words)” value in data set [2] (model ecosystem comparison) is reported as “substantially biodegradable; also recorded: substantially more biodegradable than DDT”.

On to `Oc1ccc(NC(c2ccc(O)cc2)C(Cl)(Cl)Cl)cc1` (stereo not drawn) [HOC6 H4 NHCH(CCl3)C6 H4 OH, α-trichloromethyl-p-hydroxybenzyl-p-hydroxyaniline], for which, in [2] (setting [8]), the “Concentration of ethoxyaniline equivalents in Gambusia (fish)” value (“Concentration … (fish)” below) amounted to 0.03 ppm and the “Concentration of ethoxyaniline equivalents in Physa (snail)” value (“Concentration … (snail)” below) was 1.512 ppm. In addition, in the data set with Female housefly, the “Female housefly, percent 3H in Excreta” value is listed as 5.7% and the “Female housefly, percent 3H in Homogenate” value is 8.4%.

With `CCOc1ccc(C(=O)C(Cl)Cl)cc1` [C2 H5 OC6 H4 C(O)CHCl2, p-ethoxydichloroacetophenone], in [2] (setting [8]), the “Concentration … (fish)” value came to 0.28 ppm, the “Concentration of ethoxyaniline equivalents in Oedogonium (algae)” value is reported as 0.3 ppm and the “Concentration … (snail)” value is recorded as 3.542 ppm. Also, in the data set on Female housefly, the “Female housefly, percent 3H in Excreta” value was 9.7% and the “Female housefly, percent 3H in Homogenate” value is reported as 10.4%. Further, in the data set on Salt-marsh caterpillar, the “Salt-marsh caterpillar, percent 3H in Excreta” value was determined as 3.1% and the “Salt-marsh caterpillar, percent 3H in Homogenate” value is 8.7%.

As for `CSc1ccc(C(c2ccc(SC)cc2)C(Cl)(Cl)Cl)cc1` [methiochlor, 1,1,1-trichloro-2,2-bis-(p-methiophenyl)ethane], in data set [3], the “susceptibility to MFO enzymes (in words)” value was “readily attacked by MFO enzymes”. The “insecticidal activity (in words)” value in the data set on insects is reported as “considerably less insecticidal activity than DDT towards other species of insects”.

For the molecule `CCOc1ccc(N)cc1` [C2 H5 OC6 H4 NH2, p-ethoxyaniline], the “Concentration of ethoxyaniline equivalents in Culex (mosquito)” value in data set [2] (Culex (mosquito), 33 days, 5.0 mg 3H-ethoxyaniline to Sorghum) stood at 0.01 ppm. Besides, in data set [2] (setting [8]), the “Concentration … (fish)” value is reported as 0.03 ppm, the “Concentration of ethoxyaniline equivalents in Oedogonium (algae)” value turned out to be 0.42 ppm and the “Concentration … (snail)” value is recorded as 2.556 ppm. In addition, in data set [2] (H2O, 33 days, 5.0 mg 3H-ethoxyaniline to Sorghum), the “Concentration of ethoxyaniline equivalents in H2O” value was determined as 0.053 ppm. Moreover, in the data set on Female housefly, the “Female housefly, percent 3H in Excreta” value came to 9.1% and the “Female housefly, percent 3H in Homogenate” value was found to be 8.3%. Also, in the data set with Salt-marsh caterpillar, the “Salt-marsh caterpillar, percent 3H in Excreta” value is on record as 8.4% and the “Salt-marsh caterpillar, percent 3H in Homogenate” value is reported as 15.0%. The “Mouse liver, percent 3H in homogenate” value in data set [4] turned out to be 13.7%.

For the molecule `Clc1ccc(C(c2ccc(Cl)cc2)C(Cl)Cl)cc1` [DDD, 1,1-dichloro-2,2-bis(p-chlorophenyl)ethane], the “susceptibility to MFO enzymes (in words)” value in data set [3] is “do not function on DDT and its metabolic derivatives DDE and DDD”.

Consider `ClC(Cl)=C(c1ccc(Cl)cc1)c1ccc(Cl)cc1` [DDE, 1,1-dichloro-2,2-bis(p-chlorophenyl) ethylene], for which, in data set [3], the “susceptibility to MFO enzymes (in words)” value was “do not function on DDT and its metabolic derivatives DDE and DDD”.

As for `COc1ccc(NC(c2ccc(Cl)cc2)C(Cl)(Cl)Cl)cc1` (stereo not shown) [VI], the LD50 with Musca domestica Rsp (Musca domestica, topical, read-out: Topical LD50, Musca domestica Rsp, Alone) came to 49 mg/kg; in the data set with Musca domestica Snaidm (Musca domestica, topical, read-out: Topical LD50, Musca domestica Snaidm, Alone), 39 mg/kg; in the data set on Phormia regina (Phormia regina, topical, read-out: Topical LD50, Phormia regina, Alone), 128 mg/kg. Further, the “Topical LD50, Musca domestica Rsp, with pb” value in the data set with Musca domestica Rsp (RSP strain, synergized with piperonyl butoxide, topical) is recorded as 14.0 μg per g. In addition, the “SR, Musca domestica Rsp” value in the data set with Musca domestica Rsp (setting [9]) is listed as 3.4. Further, in [5], the “SR values (in words)” value is listed as “higher SR values”. Also, in the data set with Culex fatigans larvae, the “LC50 Culex fatigans larvae” value was found to be 0.44 ppm. Besides, the “LC50 Anopheles albimanus larvae” value in data set [6] was determined as 0.37 ppm. Also, the “Topical LD50, Musca domestica Snaidm, with pb” value with Musca domestica Snaidm (SNAIDM strain, synergized with piperonyl butoxide, topical) is 6.5 μg per g. In addition, the “SR, Musca domestica Snaidm” value in the data set with Musca domestica Snaidm (setting [9]) was 6.0. Moreover, the “SR, Phormia regina” value with Phormia regina (setting [9]) was 1.6. Also, the “Topical LD50, Phormia regina, with pb” value with Phormia regina (synergized with piperonyl butoxide, topical) was 80 μg per g.
